Experimental data from the NIST ThermoML archive (doi:10.1021/je0501890).
± gives the expanded uncertainty stated by the source.

Experiment: xn = mol fraction of the nth substance listed
Conditions: 101.33 kPa, Liquid

CC(Cl)(Cl)Cl [1,1,1-trichloroethane] + CCCCCCCO
Conditions	mass density, 293.15 K [kg/m3]	mass density, 298.15 K [kg/m3]	mass density, 303.15 K [kg/m3]	viscosity, 293.15 K [mPa·s]	viscosity, 298.15 K [mPa·s]	viscosity, 303.15 K [mPa·s]
x2 = 0.103	1252.2 ± 0.93	1244.75 ± 0.91	1237.24 ± 0.9	–	–	–
x2 = 0.1048	–	–	–	0.996 ± 0.014	0.914 ± 0.013	0.858 ± 0.012
x2 = 0.1615	1214.95 ± 0.86	1207.9 ± 0.85	1200.8 ± 0.84	–	–	–
x2 = 0.2027	–	–	–	1.224 ± 0.017	1.11 ± 0.015	1.014 ± 0.014
x2 = 0.2047	1188.54 ± 0.82	1181.77 ± 0.81	1174.93 ± 0.8	–	–	–
x2 = 0.2545	1159.2 ± 0.77	1152.74 ± 0.76	1146.2 ± 0.75	–	–	–
x2 = 0.3034	–	–	–	1.529 ± 0.021	1.379 ± 0.019	1.245 ± 0.017
x2 = 0.309	1128.37 ± 0.73	1122.23 ± 0.72	1116.01 ± 0.71	–	–	–
x2 = 0.3514	1105.21 ± 0.7	1099.32 ± 0.69	1093.32 ± 0.68	–	–	–
x2 = 0.3542	–	–	–	1.714 ± 0.023	1.539 ± 0.021	1.388 ± 0.019
x2 = 0.398	–	–	–	1.895 ± 0.025	1.699 ± 0.023	1.526 ± 0.021
x2 = 0.4022	1078.45 ± 0.67	1072.77 ± 0.66	1067.06 ± 0.65	–	–	–
x2 = 0.5016	1028.73 ± 0.62	1023.53 ± 0.61	1018.27 ± 0.6	–	–	–
x2 = 0.503	–	–	–	2.426 ± 0.033	2.14 ± 0.029	1.907 ± 0.026
x2 = 0.5509	1005.32 ± 0.58	1000.35 ± 0.57	995.29 ± 0.57	–	–	–
x2 = 0.5533	–	–	–	2.729 ± 0.036	2.393 ± 0.032	2.127 ± 0.029
x2 = 0.58	991.84 ± 0.57	986.98 ± 0.57	982.04 ± 0.57	–	–	–
x2 = 0.5993	–	–	–	3.043 ± 0.041	2.664 ± 0.036	2.353 ± 0.032
x2 = 0.6573	957.28 ± 0.56	952.71 ± 0.57	948.09 ± 0.57	–	–	–
x2 = 0.6724	950.85 ± 0.56	946.34 ± 0.57	941.77 ± 0.57	–	–	–
x2 = 0.6811	–	–	–	3.69 ± 0.049	3.196 ± 0.043	2.791 ± 0.038
x2 = 0.7416	–	–	–	4.217 ± 0.057	3.629 ± 0.049	3.141 ± 0.043
x2 = 0.7421	921.42 ± 0.58	917.17 ± 0.58	912.86 ± 0.58	–	–	–
x2 = 0.7937	900.46 ± 0.59	896.37 ± 0.59	892.23 ± 0.59	–	–	–
x2 = 0.7956	–	–	–	4.783 ± 0.064	4.09 ± 0.056	3.495 ± 0.048
x2 = 0.8459	879.86 ± 0.6	875.95 ± 0.61	871.97 ± 0.61	–	–	–
x2 = 0.9003	–	–	–	5.912 ± 0.077	5.018 ± 0.068	4.297 ± 0.059
x2 = 0.9027	858.15 ± 0.62	854.41 ± 0.63	850.61 ± 0.63	–	–	–

ClC(Cl)C(Cl)Cl [1,1,2,2-tetrachloroethane] + CCCCCCCO
Conditions	mass density, 293.15 K [kg/m3]	mass density, 298.15 K [kg/m3]	mass density, 303.15 K [kg/m3]	viscosity, 293.15 K [mPa·s]	viscosity, 298.15 K [mPa·s]	viscosity, 303.15 K [mPa·s]
x2 = 0.0506	1541.06 ± 1.5	1533.58 ± 1.5	1526.03 ± 1.4	–	–	–
x2 = 0.0997	–	–	–	1.852 ± 0.024	1.69 ± 0.022	1.547 ± 0.021
x2 = 0.1031	1488.84 ± 1.4	1481.6 ± 1.4	1474.35 ± 1.4	–	–	–
x2 = 0.1519	1442.21 ± 1.3	1435.22 ± 1.3	1428.22 ± 1.3	–	–	–
x2 = 0.2003	1397.58 ± 1.2	1390.83 ± 1.2	1384.07 ± 1.2	–	–	–
x2 = 0.2073	–	–	–	2.091 ± 0.028	1.907 ± 0.025	1.71 ± 0.023
x2 = 0.2515	1351.89 ± 1.1	1345.42 ± 1.1	1338.9 ± 1.1	–	–	–
x2 = 0.2998	1310.19 ± 1.1	1303.92 ± 1.1	1297.68 ± 1	–	–	–
x2 = 0.3054	–	–	–	2.417 ± 0.031	2.187 ± 0.029	1.927 ± 0.026
x2 = 0.3445	–	–	–	2.558 ± 0.034	2.272 ± 0.03	2.027 ± 0.027
x2 = 0.3499	1268.42 ± 0.99	1262.39 ± 0.98	1256.35 ± 0.97	–	–	–
x2 = 0.4085	–	–	–	2.833 ± 0.038	2.506 ± 0.033	2.225 ± 0.03
x2 = 0.4109	1219.27 ± 0.92	1213.55 ± 0.91	1207.77 ± 0.9	–	–	–
x2 = 0.4464	1191.47 ± 0.88	1185.87 ± 0.87	1180.31 ± 0.86	–	–	–
x2 = 0.5042	–	–	–	3.341 ± 0.044	2.908 ± 0.039	2.555 ± 0.034
x2 = 0.5113	1142.28 ± 0.82	1136.96 ± 0.81	1131.65 ± 0.8	–	–	–
x2 = 0.5438	–	–	–	3.564 ± 0.047	3.101 ± 0.042	2.715 ± 0.037
x2 = 0.5524	1112.04 ± 0.76	1106.9 ± 0.75	1101.73 ± 0.74	–	–	–
x2 = 0.5988	–	–	–	3.924 ± 0.052	3.392 ± 0.046	2.962 ± 0.04
x2 = 0.6013	1077.03 ± 0.69	1072.05 ± 0.68	1067.13 ± 0.68	–	–	–
x2 = 0.6506	1042.68 ± 0.63	1037.91 ± 0.62	1033.17 ± 0.62	–	–	–
x2 = 0.6937	–	–	–	4.654 ± 0.062	3.992 ± 0.054	3.429 ± 0.047
x2 = 0.6959	1011.91 ± 0.58	1007.34 ± 0.58	1002.73 ± 0.57	–	–	–
x2 = 0.7507	975.7 ± 0.56	971.35 ± 0.56	966.91 ± 0.56	–	–	–
x2 = 0.753	–	–	–	5.166 ± 0.069	4.389 ± 0.06	3.763 ± 0.052
x2 = 0.8001	943.88 ± 0.57	939.68 ± 0.57	935.48 ± 0.57	–	–	–
x2 = 0.8007	–	–	–	5.595 ± 0.074	4.737 ± 0.065	4.035 ± 0.056
x2 = 0.8505	912.27 ± 0.58	908.25 ± 0.58	904.23 ± 0.59	–	–	–
x2 = 0.8971	–	–	–	6.506 ± 0.087	5.365 ± 0.073	4.627 ± 0.063
x2 = 0.8979	883.17 ± 0.6	879.34 ± 0.6	875.45 ± 0.61	–	–	–
x2 = 0.9513	851.1 ± 0.63	847.45 ± 0.64	843.75 ± 0.64	–	–	–

CCCCCCCO [heptan-1-ol] + ClCCCl
Conditions	mass density, 293.15 K [kg/m3]	mass density, 298.15 K [kg/m3]	mass density, 303.15 K [kg/m3]	viscosity, 293.15 K [mPa·s]	viscosity, 298.15 K [mPa·s]	viscosity, 303.15 K [mPa·s]
x1 = 0.0502	1213.23 ± 0.85	1206.24 ± 0.84	1199.3 ± 0.83	–	–	–
x1 = 0.1023	–	–	–	0.922 ± 0.013	0.851 ± 0.012	0.796 ± 0.011
x1 = 0.1024	1175.9 ± 0.79	1169.21 ± 0.78	1162.55 ± 0.77	–	–	–
x1 = 0.1493	1145.01 ± 0.74	1138.62 ± 0.73	1132.15 ± 0.72	–	–	–
x1 = 0.2009	–	–	–	1.104 ± 0.015	1.006 ± 0.014	0.928 ± 0.013
x1 = 0.2511	1085.65 ± 0.66	1079.74 ± 0.65	1073.87 ± 0.64	–	–	–
x1 = 0.2957	–	–	–	1.342 ± 0.018	1.215 ± 0.017	1.105 ± 0.015
x1 = 0.3445	1038.38 ± 0.6	1032.88 ± 0.6	1027.38 ± 0.59	–	–	–
x1 = 0.3465	–	–	–	1.501 ± 0.02	1.353 ± 0.018	1.227 ± 0.017
x1 = 0.3896	1017.38 ± 0.58	1012.13 ± 0.57	1006.83 ± 0.57	–	–	–
x1 = 0.4198	1004.18 ± 0.57	999.04 ± 0.56	993.91 ± 0.56	–	–	–
x1 = 0.455	989.42 ± 0.56	984.4 ± 0.57	979.35 ± 0.57	–	–	–
x1 = 0.4616	–	–	–	1.939 ± 0.026	1.732 ± 0.023	1.546 ± 0.021
x1 = 0.5017	970.85 ± 0.57	966 ± 0.57	961.14 ± 0.57	–	–	–
x1 = 0.5035	–	–	–	2.139 ± 0.029	1.901 ± 0.026	1.699 ± 0.023
x1 = 0.5437	–	–	–	2.355 ± 0.032	2.079 ± 0.028	1.844 ± 0.025
x1 = 0.551	952.41 ± 0.57	947.76 ± 0.57	943.04 ± 0.57	–	–	–
x1 = 0.5998	–	–	–	2.703 ± 0.036	2.367 ± 0.032	2.089 ± 0.028
x1 = 0.6036	933.66 ± 0.57	929.17 ± 0.58	924.63 ± 0.58	–	–	–
x1 = 0.6481	918.87 ± 0.58	914.5 ± 0.58	910.13 ± 0.59	–	–	–
x1 = 0.6602	914.96 ± 0.58	910.61 ± 0.58	906.29 ± 0.59	–	–	–
x1 = 0.6956	903.77 ± 0.59	899.55 ± 0.59	895.28 ± 0.59	–	–	–
x1 = 0.6972	–	–	–	3.412 ± 0.046	2.955 ± 0.04	2.583 ± 0.035
x1 = 0.7475	–	–	–	3.887 ± 0.052	3.354 ± 0.045	2.905 ± 0.04
x1 = 0.748	887.98 ± 0.6	883.88 ± 0.6	879.79 ± 0.61	–	–	–
x1 = 0.7974	873.84 ± 0.61	869.91 ± 0.61	865.91 ± 0.62	–	–	–
x1 = 0.7978	–	–	–	4.397 ± 0.059	3.773 ± 0.051	3.253 ± 0.044
x1 = 0.8548	858.28 ± 0.62	854.47 ± 0.63	850.61 ± 0.63	–	–	–
x1 = 0.8862	–	–	–	5.474 ± 0.072	4.65 ± 0.063	3.979 ± 0.055
x1 = 0.8898	849.21 ± 0.63	845.44 ± 0.64	841.7 ± 0.64	–	–	–
x1 = 0.9489	834.67 ± 0.65	831.05 ± 0.65	827.43 ± 0.66	–	–	–
